From PMC11549994, “A dTDP-L-rhamnose 4-epimerase required for glycopeptidolipid biosynthesis in Mycobacterium abscessus” (The Journal of Biological Chemistry, 2024)
Like-named read-outs stand apart in the source and are kept apart here.

How the values were obtained:
[1] = system: T1, M. abscessus CIP104536T (R); assay: microbe, parasite or virus in culture; set-up: species or system Mycobacteroides abscessus CIP104536T; antibiotic susceptibility testing, MIC of drugs against M. abscessus strains; conditions: Mycobacteroides abscessus, read-out: MIC (µg/mL) (phenotypea) / R
T1 construct: CIP104536T rough (R) morphotype
Method: (§1) M. abscessus CIP104536^T (S) and CIP104536^T (R) strains used in this study were previously sequenced and their genomic differences identified and characterized ([13], [60]). Mycobacteria were grown in Middlebrook 7H9 broth (BD) supplemented with 0.025% tyloxapol and 10% oleic acid-albumin-dextrose-catalase (OADC) enrichment (7H9^OADC) or on Middlebrook 7H10 agar (BD) containing 10% OADC (7H10^OADC) at 37 °C, with antibiotics when required. A Bio-Rad Gene pulser (25 μF, 2500 V, 800 Ω) was used to transform electrocompetent mycobacteria. After transformation, strains carrying the pMV306 ([48]) derivatives were selected on 250 μg/ml kanamycin.

[2] = system: T2, M. abscessus CIP104536T (S); assay: microbe, parasite or virus in culture; set-up: species or system Mycobacteroides abscessus CIP104536T; antibiotic susceptibility testing, MIC of drugs against M. abscessus strains; conditions: Mycobacteroides abscessus, read-out: MIC (µg/mL) (phenotypea) / S
T2 construct: CIP104536T smooth (S) morphotype
Method: as §1

[3] = molecular target: T3, MAB_4111c (Tle) (Mycobacteroides abscessus, UniProt B1MIG3); assay: reverse reaction, formation of dTDP-Rha (data not shown); assay type: biochemical; conditions: 60 min, also the product of the forward reaction, partially purified Ni-bead fraction
T3 construct: full-length, 353 residues, six-histidine tag from pET30 (kept), expressed in E. coli BL21 Star DE3; partially purified Ni-bead-enriched fraction
T3 sequence (B1MIG3 entry or part of it): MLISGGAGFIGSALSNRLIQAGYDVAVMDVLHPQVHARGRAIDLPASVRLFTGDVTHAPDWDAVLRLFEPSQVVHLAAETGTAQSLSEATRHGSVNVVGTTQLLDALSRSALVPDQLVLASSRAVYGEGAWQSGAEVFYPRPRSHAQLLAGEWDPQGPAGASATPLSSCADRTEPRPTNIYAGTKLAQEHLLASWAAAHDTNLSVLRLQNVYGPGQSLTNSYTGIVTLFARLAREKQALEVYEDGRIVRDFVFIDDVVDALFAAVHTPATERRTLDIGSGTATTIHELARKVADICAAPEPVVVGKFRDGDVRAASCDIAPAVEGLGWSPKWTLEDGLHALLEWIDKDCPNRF

[4] = system: T2, M. abscessus CIP104536T (S); assay: microbe, parasite or virus in culture; set-up: species or system Mycobacteroides abscessus CIP104536T; antibiotic susceptibility testing, MIC of drugs against M. abscessus strains; conditions: Mycobacteroides abscessus, read-out: MIC (µg/mL) (phenotypea) / S; remark: listed apart in the source
Method: as §1

[5] = system: T1, M. abscessus CIP104536T (R); assay: microbe, parasite or virus in culture; set-up: species or system Mycobacteroides abscessus CIP104536T; antibiotic susceptibility testing, MIC of drugs against M. abscessus strains; conditions: Mycobacteroides abscessus, read-out: MIC (µg/mL) (phenotypea) / R; remark: listed apart in the source
Method: as §1

Structure (SMILES) | MIC [1] | MIC [2] | reverse reaction, formation of dTDP-Rha (data not shown) [3] | MIC [4] | MIC [5]
CO[C@@]1(NC(=O)Cc2cccs2)C(=O)N2C(C(=O)O)=C(COC(N)=O)CS[C@@H]21 [Cefoxitin] | 128 µg/mL | 64 µg/mL |  |  | 
NCC[C@H](O)C(=O)N[C@@H]1C[C@H](N)[C@@H](O[C@H]2O[C@H](CN)[C@@H](O)[C@H](O)[C@H]2O)[C@H](O)[C@H]1O[C@H]1O[C@H](CO)[C@@H](O)[C@H](N)[C@H]1O [Amikacin] | 32 µg/mL | 16 µg/mL |  |  | 
CO[C@H]1/C=C/O[C@@]2(C)Oc3c(C)c(O)c4c(c3C2=O)C2=NC3(CCN(CC(C)C)CC3)NC2=C(NC(=O)/C(C)=C\C=C\[C@H](C)[C@H](O)[C@@H](C)[C@@H](O)[C@@H](C)[C@H](OC(C)=O)[C@@H]1C)C4=O [Rifabutin] | 16 µg/mL | 64 µg/mL |  |  | 
COc1c(N2C[C@@H]3CCCN[C@@H]3C2)c(F)cc2c(=O)c(C(=O)O)cn(C3CC3)c12 [Moxifloxacin] | > 8 µg/mL | > 8 µg/mL |  |  | 
Cc1cn([C@H]2C[C@H](O)[C@@H](COP(=O)(O)OP(=O)(O)O[C@H]3O[C@@H](C)[C@@H](O)[C@@H](O)[C@H]3O)O2)c(=O)[nH]c1=O [dTDP-6-d-Tal] |  |  | reverse reaction using dTDP-6-d-Tal as a substrate and observed the formation of dTDP-Rha |  | 
CO/N=C(\C(=O)N[C@@H]1C(=O)N2C(C(=O)[O-])=C(C[N+]3(C)CCCC3)CS[C@H]12)c1csc(N)n1 [Cefepime] | > 32 µg/mL | > 32 µg/mL |  |  | 
CC[C@H]1OC(=O)[C@H](C)[C@@H](O[C@H]2C[C@@](C)(OC)[C@@H](O)[C@H](C)O2)[C@H](C)[C@@H](O[C@@H]2O[C@H](C)C[C@H](N(C)C)[C@H]2O)[C@](C)(OC)C[C@@H](C)C(=O)[C@H](C)[C@@H](O)[C@]1(C)O [Clarithromycin] | 4 µg/mL | 8 µg/mL |  | > 16 µg/mL | > 16 µg/mL
C[C@H]1c2cccc(O)c2C(=O)C2=C(O)[C@]3(O)C(=O)C(C(N)=O)=C(O)[C@@H](N(C)C)[C@@H]3[C@@H](O)[C@@H]21 [Doxycycline] | > 16 µg/mL | > 16 µg/mL |  |  | 
NC[C@H]1O[C@H](O[C@H]2[C@H](O)[C@@H](O[C@H]3O[C@H](CO)[C@@H](O)[C@H](N)[C@H]3O)[C@H](N)C[C@@H]2N)[C@H](N)C[C@@H]1O [Tobramycin] | 16 µg/mL | 16 µg/mL |  |  | 
CO/N=C(\C(=O)N[C@@H]1C(=O)N2C(C(=O)O)=C(CSc3nc(=O)c(O)nn3C)CS[C@H]12)c1csc(N)n1 [Ceftriaxone] | > 64 µg/mL | > 64 µg/mL |  |  | 
C[C@@H](O)[C@H]1C(=O)N2C(C(=O)O)=C(SCCNC=N)C[C@H]12 [Imipenem] | 64 µg/mL | 64 µg/mL |  |  | 
CN(C)c1ccc(O)c2c1C[C@H]1C[C@H]3[C@H](N(C)C)C(O)=C(C(N)=O)C(=O)[C@@]3(O)C(O)=C1C2=O [Minocycline] | > 8 µg/mL | > 8 µg/mL |  |  | 
CC(=O)NC[C@H]1CN(c2ccc(N3CCOCC3)c(F)c2)C(=O)O1 [Linezolid] | 32 µg/mL | 32 µg/mL |  |  | 
CN(C)c1cc(NC(=O)CNC(C)(C)C)c(O)c2c1C[C@H]1C[C@H]3[C@H](N(C)C)C(O)=C(C(N)=O)C(=O)[C@@]3(O)C(O)=C1C2=O [Tigecycline] | 1 µg/mL | 0.5 µg/mL |  |  | 
